One series concerns miR-155. The experiment in a line: Gel-retardation assay, hybridization with miR-155. Type of series: binding. The following applies: 37 °C, 45 min, mean of 3. The source says:
(§1) We carried out a comparative analysis of the hybridization properties of the developed DCs with the corresponding SCs, which were the products of the first stage of the DCs synthesis. As discussed above, each SC consisted of the corresponding oligonucleotide A, which was complementary to the 5′-region of the matching miRNA target, and the catalytic peptide [LRLRG]2, attached to the 5′-end of this oligonucleotide via a thiohexyl linker (linker 2). […] Indeed, the level of binding of DCs to their miRNA targets reached 96, 90, 75, 55% at equimolar concentration (1 μM), and 99, 96, 92 and 69% at 5-fold excess of DCs over miR-17, miR-18a, miR-21 and miR-155, respectively (Figure 2). […]
(§2) The reaction mixture (4 µL) containing 50 mM Tris-HCl, pH 7.0, 200 mM KCl and 1 mM EDTA, 100 cpm (Cherenkov’s counting) of [^32P]-miRNA, 1 μM unlabeled miRNA, a conjugate at a concentration ranging from 0.1 to 10 μM was incubated at 37 °C for 45 min and quenched by adding of a loading buffer (20% ficoll, 0.025% bromophenol blue, 0.025% xylene cyanol). […] Formation of the complex miRNA/conjugate was analyzed by electrophoresis in 15% native PAAG at 4 °C. The gels were analyzed using Molecular Imager FX. The extent of binding of conjugate to miRNA was determined as a ratio of radioactivity measured in the complex to the total radioactivity applied onto the gel lane.

For the next series, the system named is miR-17. The experiment in a line: Ribonuclease activity assay, cleavage of miR-17. The following applies: miRNA 1 µM, DC 20 µM, 37 °C. Type of series: biochemical. As for the experimental part: The ribonuclease activity of DCs was studied under two different buffer conditions: buffer (1) contained 50 mM Tris-HCl, pH 7.0, 200 mM KCl, 1 mM EDTA, which imitates intracellular conditions (e.g., pH and potassium ions concentration) and was used in a number of studies previously; and buffer (2) contained 20 mM Tris-HCl, pH 7.8, 40 mM KCl, 8 mM MgCl2, 1 mM DTT, 0.02 mg/mL BSA, which is recommended for in vitro reactions with RNase H (Figure 3 and Figure 4).
Figure 3 Kinetics of cleavage of 5′-[^32P]-labeled miR-17, miR-18a, miR-155, miR-21 and miR-21_1 by corresponding DCs in the buffer (1), containing 50 mM Tris-HCl, pH 7.0, 200 mM KCl and 1 mM EDTA. (a–e) Radioautographs of 18% denaturing PAAG showing the cleavage products of miR-17, miR-18a, miR-155, miR-21 and miR-21_1, respectively. miRNA (1 µM) and corresponding DC (20 µM) were incubated at 37 °C for 72 h. Lanes Im and T1—imidazole ladder and partial RNA digestion with RNase T1, respectively; control–miRNA was incubated in the absence of the conjugate. The incubation time (in hours) is show at the top. SS gap–single-stranded region of miRNA formed upon hybridization with DC; (f) Kinetics of miRNAs cleavage by DCs depending on the incubation time. Data are presented as mean ± s.e.
Figure 4 Kinetics of cleavage of 5′-[^32P]-labeled miR-17, miR-18a, miR-155, miR-21, and miR-21_1 by corresponding DCs in the buffer (2), containing 20 mM Tris-HCl, pH 7.8, 40 mM KCl, 8 mM MgCl2, 1 mM DTT, 0.02 mg/mL BSA. (a–e) Radioautographs of 18% denaturing PAAG showing the cleavage products of miR-17, miR-18a, miR-155, miR-21 and miR-21_1, respectively. miRNA (1 µM) and corresponding DC (20 µM) were incubated at 37 °C for 72 h. Lanes Im and T1–imidazole ladder and partial RNA digestion with RNase T1, respectively; control–miRNA was incubated in the absence of the conjugate. The incubation time (in hours) is shown at the top. SS gap–single-stranded region of miRNA formed upon hybridization with DC; (f) Kinetics of miRNAs cleavage by DCs. Data are presented as mean ± s.e.
The reaction mixture (10 µL) contained 800 cpm (Cherenkov’s counting) of [^32P]-miRNA, 1 μM unlabeled miRNA, one of the conjugates at a concentration 10 or 20 μM and one of the buffers: 50 mM Tris-HCl, pH 7.0, 200 mM KCl, 1 mM EDTA–buffer (1) or 20 mM Tris-HCl, pH 7.8, 40 mM KCl, 8 mM MgCl2, 1 mM DTT, 0.02 mg/mL BSA–buffer (2). The mixture was incubated at 37 °C for 0–72 h and quenched by precipitation of RNA with 2% LiClO4 in acetone (90 µL). RNA was collected by centrifugation and dissolved in loading buffer (8 M urea, 0.025% bromophenol blue, 0.025% xylene cyanol). RNA cleavage products were analyzed in 18% PAAG/8M urea using TBE (100 mM Tris-borate, pH 8.3, 2 mM EDTA) as running buffer. To identify cleavage sites, an imidazole and T1-ladders produced by partial RNA cleavage with 2 M imidazole buffer (pH 7.0) and with RNase T1 [68], respectively, were run in parallel. To obtain quantitative data, gels were dried and analyzed using Molecular Imager FX. The total extent of RNA cleavage and the extent of RNA cleavage at each individual site were determined by using Quantity One software v.4.1 (Bio-Rad, Hercules, CA, USA).

A further series has as its system miR-21. As to the kind of experiment: Gel-retardation assay, hybridization with miR-21. Type of series: binding. The following applies: 37 °C, 45 min, mean of 3.
Source text: as §1, §2

Setting [1] is: 5-fold excess of DC over miRNA (1 µM), same buffer.
The mark [2] stands for this setting: equimolar, DC 1 µM : miRNA 1 µM, 50 mM Tris-HCl pH 7.0, 200 mM KCl, 1 mM EDTA.

Turning to “ACCCCTAT–linker 1–[GRLRL]2–linker 2–TTAGCATTAA [miRNA-155-DC, Dual oligonucleotide-peptide conjugate targeted to miR-155: catalytic peptide [LRLRG]2 between two 2-aminoadenine-containing oligodeoxyribonucleotides]”, the figures for the “level of binding of DC to miRNA target” value in the series with miR-155 (setting [1]) and in the series with miR-155 (setting [2]) were 69% and 55%, respectively.
In the case of “CTACCTGC–linker 1–[GRLRL]2–linker 2–AAGCACTTTG [miRNA-17-DC, Dual oligonucleotide-peptide conjugate targeted to miR-17: catalytic peptide [LRLRG]2 between two 2-aminoadenine-containing oligodeoxyribonucleotides]”, the “Total Cleavage” value is reported as 0% in the series on miR-17 (buffer (1) 50 mM Tris-HCl pH 7.0, 200 mM KCl, 1 mM EDTA, 2 h); 0% in the series with miR-17 (buffer (1) 50 mM Tris-HCl pH 7.0, 200 mM KCl, 1 mM EDTA, 6 h); 1% in the series on miR-17 (buffer (1) 50 mM Tris-HCl pH 7.0, 200 mM KCl, 1 mM EDTA, 24 h); 2% with miR-17 (buffer (1) 50 mM Tris-HCl pH 7.0, 200 mM KCl, 1 mM EDTA, 48 h); 5% with miR-17 (buffer (1) 50 mM Tris-HCl pH 7.0, 200 mM KCl, 1 mM EDTA, 72 h); 1,5% in the series with miR-17 (buffer (2) 20 mM Tris-HCl pH 7.8, 40 mM KCl, 8 mM MgCl2, 1 mM DTT, 0.02 mg/mL BSA, 2 h). Moreover, the “Total Cleavage” value in the series on miR-17 (buffer (2) 20 mM Tris-HCl pH 7.8, 40 mM KCl, 8 mM MgCl2, 1 mM DTT, 0.02 mg/mL BSA, 6 h) came out at 4%; with miR-17 (buffer (2) 20 mM Tris-HCl pH 7.8, 40 mM KCl, 8 mM MgCl2, 1 mM DTT, 0.02 mg/mL BSA, 24 h), 18%; in the series with miR-17 (buffer (2) 20 mM Tris-HCl pH 7.8, 40 mM KCl, 8 mM MgCl2, 1 mM DTT, 0.02 mg/mL BSA, 48 h), 32%; in the series on miR-17 (buffer (2) 20 mM Tris-HCl pH 7.8, 40 mM KCl, 8 mM MgCl2, 1 mM DTT, 0.02 mg/mL BSA, 72 h), 40%. The “rise of Kobs in buffer (2) compared to Kobs in buffer (1)” value with miR-17 amounted to 10 fold.
With “TCAACATC–linker 1–[GRLRL]2–linker 2–GATAAGCTA [miRNA-21-DC, Dual oligonucleotide-peptide conjugate targeted to miR-21: catalytic peptide [LRLRG]2 between two 2-aminoadenine-containing oligodeoxyribonucleotides]”, the “level of binding of DC to miRNA target” value was determined as 92% in the series with miR-21 (setting [1]) and 75% in the series on miR-21 (setting [2]).

The values are drawn from PMC7287882, “Dual miRNases for Triple Incision of miRNA Target: Design Concept and Catalytic Performance” (Molecules, 2020).
